Data: paper PMC8776995 (Frontiers in Chemistry, 2022)
Several values for one entry are separate records, joined by “and”; a condition that tells them apart may be missing. Identical values can stand only once.

Columns and labels:
PC-9 cells = assay: Flow cytometry detection for cell cycle, PC-9; format: cell-based, human; conditions: for G0/G1 / G2/M / S: single repeats (Repeat 1-3)
Procedure: (§1) To investigate the effects of compounds e4 and e12 on various phases of the cell cycle, PC-9 cells were treated with compound e4 or e12 of various concentrations for 24 h, and H460 cells were treated with compound e4 or e12 of various concentrations for 12 h.
(§2) PC-9 or H460 (2 × 10^5–3 × 10^5/well) cells were seeded in six-well plates for 24 h, and then treated with 0.1% DMSO (as control), various concentrations of either compound e4 or e12 for 24 h (PC-9) or 12 h (H460), respectively. The treated cells were harvested, washed with PBS, and then stained using the cell-cycle staining kit according to the manufacturer’s manual. The distribution of cell-cycle phases with different DNA contents was determined by flow cytometry (BD LSRFortessa™ Flow Cytometer) and analyzed using ModFit LT software.

wild-type EGFR = wild-type EGFR (Homo sapiens, UniProt P00533); assay: EGFR kinase assay (ELISA); conditions: for A450: raw ELISA absorbance
Sequence of wild-type EGFR (P00533 25-1210): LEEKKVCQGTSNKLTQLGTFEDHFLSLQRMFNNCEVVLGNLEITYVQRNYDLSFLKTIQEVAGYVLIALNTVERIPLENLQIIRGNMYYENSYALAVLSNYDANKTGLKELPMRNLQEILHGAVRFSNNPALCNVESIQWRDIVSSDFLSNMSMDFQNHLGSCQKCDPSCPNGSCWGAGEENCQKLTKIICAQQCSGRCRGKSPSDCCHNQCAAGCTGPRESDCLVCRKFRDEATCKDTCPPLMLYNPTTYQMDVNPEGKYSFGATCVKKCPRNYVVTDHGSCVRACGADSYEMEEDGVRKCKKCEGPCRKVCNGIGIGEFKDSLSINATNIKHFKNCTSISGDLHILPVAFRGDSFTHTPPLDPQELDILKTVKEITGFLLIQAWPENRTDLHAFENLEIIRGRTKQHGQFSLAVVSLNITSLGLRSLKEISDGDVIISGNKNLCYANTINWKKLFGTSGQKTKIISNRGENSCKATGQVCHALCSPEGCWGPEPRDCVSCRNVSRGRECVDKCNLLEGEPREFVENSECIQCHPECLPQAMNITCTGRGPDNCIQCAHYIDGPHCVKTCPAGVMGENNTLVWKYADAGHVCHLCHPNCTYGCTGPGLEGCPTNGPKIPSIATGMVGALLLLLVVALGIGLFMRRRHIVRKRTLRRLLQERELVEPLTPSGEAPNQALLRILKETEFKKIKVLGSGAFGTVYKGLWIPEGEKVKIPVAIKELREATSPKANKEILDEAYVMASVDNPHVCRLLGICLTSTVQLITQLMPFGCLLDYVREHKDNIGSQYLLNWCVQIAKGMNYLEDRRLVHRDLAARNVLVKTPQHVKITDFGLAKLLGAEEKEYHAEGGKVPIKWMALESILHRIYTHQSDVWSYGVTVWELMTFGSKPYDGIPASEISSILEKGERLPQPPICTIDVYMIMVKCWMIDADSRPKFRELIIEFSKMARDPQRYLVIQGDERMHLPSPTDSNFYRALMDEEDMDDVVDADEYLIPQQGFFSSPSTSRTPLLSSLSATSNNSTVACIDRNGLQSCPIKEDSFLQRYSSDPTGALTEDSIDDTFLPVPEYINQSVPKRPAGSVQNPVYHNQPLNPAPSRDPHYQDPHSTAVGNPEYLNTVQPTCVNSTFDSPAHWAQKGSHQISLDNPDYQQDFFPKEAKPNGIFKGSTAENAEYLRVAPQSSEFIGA

[1] = system: AKT phosphorylation (S473) in PC-9 cells; assay: Western blot, p-AKT/AKT in PC-9; conditions: for p-AKT/AKT: band density ratio; for p-AKT/AKT relative to DMSO: ratio normalised to DMSO = 1
Procedure: We also performed western blot analysis to evaluate the impact of e4 and e12 on EGFR signaling in PC-9 and H460 cells.
H460 cells were seeded in six-well plates with serum-free medium overnight, and then treated complete medium containing 0.1% DMSO, various concentrations (0.1, 1 and 10 μM) of either compound e4 or e12 for 2 h, respectively. […] Then the H460 cells were treated with complete medium containing EGF (10 ng/ml) for 5 min. Then the cells were harvested and washed with PBS, centrifuged, resuspended in 100–200 μl of RIPA lysis buffer containing Protease and Phosphatase Inhibitor Cocktail (1X), and then centrifuged for 5 min at 12,000 rpm at 4°C. The supernatant was used for protein analysis. […] Then the membrane was washed 5 min (X3) and incubated at 1:3,000 dilution of anti-rabbit secondary antibodies or 1:1,000 dilution of anti-mouse secondary antibodies for 1 h at RT. After washing with TBST 5 min (X3), protein bands were developed by chemiluminescence. The protein levels were quantified by the gray values of the bands in the resulting images by ImageJ, and the control group was used as the standard. […] The PC-9 cells were harvested and analyzed as above.

H460 cells = assay: Flow cytometry detection for cell cycle, H460; format: cell-based, human; conditions: for G0/G1 / G2/M / S: single experiments (20200711, 20200810, 20200812)
Procedure: as §1, §2

COCCOc1cc2ncnc(Nc3cccc(-c4cn(-c5ccc(C)cc5)nn4)c3)c2cc1OCCOC [e12, [6,7-Bis-(2-methoxy-ethoxy)-quinazolin-4-yl]-[3-(1-p-tolyl-1H-[1,2,3]triazol-4-yl)-phenyl]-amine]
G0/G1 (PC-9 cells; PC-9, 4uM): 56.16 and 54.85 and 57.63
G2/M (PC-9 cells; PC-9, 4uM): 17.84 and 17.98 and 15.19
S (PC-9 cells; PC-9, 4uM): 26.01 and 27.17 and 27.19
G0/G1 (PC-9 cells; PC-9, 8uM): 53.08 and 54.06 and 56.12
G2/M (PC-9 cells; PC-9, 8uM): 20.06 and 19.34 and 16.67
S (PC-9 cells; PC-9, 8uM): 26.86 and 26.6 and 27.1
G0/G1 (PC-9 cells; PC-9, 12uM): 56.88 and 57.79 and 60.22
G2/M (PC-9 cells; PC-9, 12uM): 21.27 and 20.78 and 17.44
S (PC-9 cells; PC-9, 12uM): 21.85 and 21.43 and 22.34
percentage of cells in the G0/G1 phase (PC-9 cells; PC-9, various concentrations, 24 h): induced higher percentages
IC50 (wild-type EGFR; IC50 (μM) EGFR, ELISA, 3 μmol/L ATP): 1.76 µM
inhibition at 100 fM (wild-type EGFR; concentration 0.0001 nM (reference for normalisation), one value per replicate column): 0%
inhibition at 30 pM (wild-type EGFR; concentration 0.03 nM, one value per replicate column): 8.63%
Inhibition (wild-type EGFR; concentration 0.03 nM, one value per replicate column, 3e-05 µM): 6.151
inhibition at 0.0003 µM (wild-type EGFR; concentration 0.3 nM, one value per replicate column): 9.04%
Inhibition (wild-type EGFR; concentration 0.3 nM, one value per replicate column, 0.0003 µM): 14.0873
inhibition at 0.003 µM (wild-type EGFR; concentration 3 nM, one value per replicate column): 9.24%
Inhibition (wild-type EGFR; concentration 3 nM, one value per replicate column, 0.003 µM): 16.0714
inhibition at 0.03 µM (wild-type EGFR; concentration 30 nM, one value per replicate column): 16.1%
Inhibition (wild-type EGFR; concentration 30 nM, one value per replicate column, 0.03 µM): 18.4524
inhibition at 0.3 µM (wild-type EGFR; concentration 300 nM, one value per replicate column): 20.3%
Inhibition (wild-type EGFR; concentration 300 nM, one value per replicate column, 0.3 µM): 32.1429
inhibition at 3 µM (wild-type EGFR; concentration 3000 nM, one value per replicate column): 50.8%
Inhibition (wild-type EGFR; concentration 3000 nM, one value per replicate column, 3 µM): 50.5952
inhibition at 30 µM (wild-type EGFR; concentration 30000 nM, one value per replicate column): 85.5%
Inhibition (wild-type EGFR; concentration 30000 nM, one value per replicate column, 30 µM): 85.9127
A450 (wild-type EGFR; concentration 0.0001 nM): 0.655 and 0.663
A450 (wild-type EGFR; concentration 0.03 nM): 0.612 and 0.632
A450 (wild-type EGFR; concentration 0.3 nM): 0.61 and 0.592
A450 (wild-type EGFR; concentration 3 nM): 0.609 and 0.582
A450 (wild-type EGFR; concentration 30 nM): 0.575 and 0.57
A450 (wild-type EGFR; concentration 300 nM): 0.554 and 0.501
A450 (wild-type EGFR; concentration 3000 nM): 0.402 and 0.408
A450 (wild-type EGFR; concentration 30000 nM): 0.229 and 0.23
p-AKT/AKT ([1]; PC-9, 0.1 uM): 0.5916
p-AKT/AKT relative to DMSO ([1]; PC-9, 0.1 uM): 0.5679
p-AKT/AKT ([1]; PC-9, 1 uM): 0.4098
p-AKT/AKT relative to DMSO ([1]; PC-9, 1 uM): 0.3934
p-AKT/AKT ([1]; PC-9, 10 uM): 0.7398
p-AKT/AKT relative to DMSO ([1]; PC-9, 10 uM): 0.7102
phosphorylation of AKT (western blot) ([1]; PC-9, especially at 10 μM): suppressed
G0/G1 (H460 cells; H460, 4uM): 46.77% and 59.95%
G2/M (H460 cells; H460, 4uM): 19.08% and 18.32% and 13.33%
S (H460 cells; H460, 4uM): 34.15% and 35.36% and 26.72%
G0/G1 (H460 cells; H460, 8uM): 49.59% and 63.38%
G2/M (H460 cells; H460, 8uM): 16.88% and 18.32% and 11.47%
S (H460 cells; H460, 8uM): 33.54% and 35.36% and 25.15%
G0/G1 (H460 cells; H460, 12uM): 47.32% and 46.51% and 62.09%
S (H460 cells; H460, 12uM): 32.63% and 19.41% and 25.2%
percentage of cells in the G0/G1 phase (H460 cells; H460, various concentrations, 12 h): induced higher percentages
